Source: patent USRE47589E1, “Phosphoramidate compounds and methods of use” (NuCana plc, priority 2003, dated 2019)
Like-named read-outs stand apart in the source and are kept apart here.

Assays:
Type in all cases: cell-based
[1] = tested on: human breast cancer cell line (MDA MB 231); test: MTT cytotoxicity assay, breast cancer cell line; conditions: Homo sapiens, MDA-MB-231, read-out: EC50/μM Breast MDA MB231
Protocol: (§1) The compounds include those whose preparations are described above and compounds made by preparative methods corresponding to the methods described above.
(§2) Compounds were diluted over a range of concentrations and added to cells over 1 to 3 days. The cytotoxity was determined using a MTT assay at the end of each experiment.

[2] = tested on: human colon cancer cell line (HT115); test: MTT cytotoxicity assay, colon cancer cell line
Protocol: as §1, §2

[3] = tested on: human prostate cancer cell line (PC-3); test: MTT cytotoxicity assay, prostate cancer cell line; conditions: read-out: EC50/μM Prostate PC-3
Protocol: as §1, §2

[4] = Homo sapiens, HT115, read-out: EC50/μM Colon HT115, MTT assay, compounds added to cells over 1 to 3 days
[5] = MTT assay, compounds added to cells over 1 to 3 days, read-out: EC50/μM Colon HT115
[6] = MTT assay, compounds added to cells over 1 to 3 days

Molecule | EC50 [1] [µM] | EC50 [2, 4] [µM] | EC50 ([3]; Homo sapiens) [µM] | EC50 ([2]; read-out: EC50/μM Colon HT115, MTT assay, compounds added to cells over 1 to 3 days) [µM] | EC50 [2, 5] [µM] | EC50 [3, 6] [µM]
O=c1[nH]c(=O)n([C@H]2CC(O)[C@@H](CO)O2)cc1/C=C/Br (stereo in doubt) [Example A, 5-(2-Bromovinyl)-2′-deoxyuridine, reference compound] | 125 | 78.7 | 120 | – | – | –
COC(=O)[C@H](C)NP(=O)(OC[C@H]1O[C@@H](n2cc(/C=C/Br)c(=O)[nH]c2=O)CC1O)Oc1ccccc1 (stereo partly drawn) [Example 1, (E)-5-(2-Bromovinyl)-2′-deoxyuridine-5′-[phenyl-(methoxy-L-alaninyl)]-phosphate, reference compound] | 79 | 244 | 155 | 244 | – | –
C[C@H](NP(=O)(OC[C@H]1O[C@@H](n2cc(/C=C/Br)c(=O)[nH]c2=O)CC1O)Oc1ccc(C(F)(F)F)cc1)C(=O)OCc1ccccc1 (stereo partly drawn) [Example 4, (E)-5-(2-Bromovinyl)-2′-deoxyuridine-5′-[para-trifluorophenyl-(benzoxy-L-alaninyl)]-phosphate] | 31 | 7.4 | 9.3 | – | – | –
COC(=O)[C@H](C)NP(=O)(OC[C@H]1O[C@@H](n2cc(/C=C/Br)c(=O)[nH]c2=O)CC1O)Oc1ccc(F)cc1 (stereo partly drawn) [Example 5, (E)-5-(2-Bromovinyl)-2′-deoxyuridine-5′-[para-fluorophenyl-(methoxy-L-alaninyl)]-phosphate] | 159 | 17 | 58 | – | – | –
CCOC(=O)[C@H](C)NP(=O)(OC[C@H]1O[C@@H](n2cc(/C=C/Br)c(=O)[nH]c2=O)CC1O)Oc1ccc(F)cc1 (stereo partly drawn) [Example 6, (E)-5-(2-Bromovinyl)-2′-deoxyuridine-5′-[para-fluorophenyl-(ethoxy-L-alaninyl)]-phosphate] | 46 | 11 | 42 | – | – | –
C[C@H](NP(=O)(OC[C@H]1O[C@@H](n2cc(/C=C/Br)c(=O)[nH]c2=O)CC1O)Oc1ccc(F)cc1)C(=O)OCc1ccccc1 (stereo partly shown) [Example 7] | 17 | 3.5 | 16 | – | – | –
C[C@H](NP(=O)(OC[C@H]1O[C@@H](n2cc(/C=C/Br)c(=O)[nH]c2=O)CC1O)Oc1ccc([N+](=O)[O-])cc1)C(=O)OCc1ccccc1 (stereo partly drawn) [Example 8, (E)-5-(2-Bromovinyl)-2′-deoxyuridine-5′-[para-nitrophenyl-(benzoxy-L-alaninyl)]-phosphate] | 28 | 9 | – | – | – | –
CCOC(=O)[C@H](C)NP(=O)(OC[C@H]1O[C@@H](n2cc(/C=C/Br)c(=O)[nH]c2=O)CC1O)Oc1ccc([N+](=O)[O-])cc1 (stereo partly drawn) [Example 9, (E)-5-(2-Bromovinyl)-2′-deoxyuridine-5′-[para-nitrophenyl-(ethoxy-L-alaninyl)]-phosphate] | 177 | 119 | 365 | – | – | –
COC(=O)[C@H](C)NP(=O)(OC[C@H]1O[C@@H](n2cc(/C=C/Br)c(=O)[nH]c2=O)CC1O)Oc1ccc([N+](=O)[O-])cc1 (stereo partly drawn) [Example 10, (E)-5-(2-Bromovinyl)-2 ′-deoxyuridine-5′-[para-nitrophenyl-(methoxy-L-alaninyl)]-phosphate] | 105 | 96.7 | 10.4 | – | – | –
CCOC(=O)[C@H](C)NP(=O)(OC[C@H]1O[C@@H](n2cc(/C=C/Br)c(=O)[nH]c2=O)CC1O)Oc1ccc(Cl)cc1 (stereo partly drawn) [Example 11, (E)-5-(2-bromovinyl)-2′-deoxyuridine-5′-[4-chlorophenyl-(ethoxy-L-alaninyl)]-phosphate] | 28.7 | 14.9 | 3.4 | – | – | –
C[C@H](NP(=O)(OC[C@H]1O[C@@H](n2cc(/C=C/Br)c(=O)[nH]c2=O)CC1O)Oc1ccc(Cl)cc1)C(=O)OCc1ccccc1 (stereo partly drawn) [Example 12, (E)-5-(2-bromovinyl)-2′-deoxyuridine-5′-[4-chlorophenyl-(benzoxy-L-alaninyl)]-phosphate] | 6.2 | 3.4 | 2.4 | – | – | –
COC(=O)[C@H](C)NP(=O)(OC[C@H]1O[C@@H](n2cc(/C=C/Br)c(=O)[nH]c2=O)CC1O)Oc1ccc(Cl)cc1 (stereo partly drawn) [Example 13, (E)-5-(2-bromovinyl)-2′-deoxyuridine-5′-[4-chlorophenyl-(methoxy-L-alaninyl)]-phosphate] | 61 | 70.2 | 13 | – | – | –
CC(C)(NP(=O)(OC[C@H]1O[C@@H](n2cc(/C=C/Br)c(=O)[nH]c2=O)CC1O)Oc1ccccc1)C(=O)OCc1ccccc1 (stereo partly drawn) [Example 14, (E)-5-(2-bromovinyl)-2′-deoxyuridine-5′-[phenyl-(benzoxy-α,α-dimethylglycinyl)]-phosphate] | 19 | 14.5 | 5.1 | – | – | –
COC(=O)[C@H](C)NP(=O)(OC[C@H]1O[C@@H](n2cc(/C=C/Br)c(=O)[nH]c2=O)CC1O)Oc1ccc(C(F)(F)F)cc1 (stereo partly drawn) [Example 15, (E)-5-(2-bromovinyl)-2′-deoxyuridine-5′-[para-(trifluoromethyl)-phenyl-(methoxy-L-alaninyl)]-phosphate] | 47 | 79.2 | 15 | – | – | –
COC(=O)C1(NP(=O)(OC[C@H]2O[C@@H](n3cc(/C=C/Br)c(=O)[nH]c3=O)CC2O)Oc2ccccc2)CCCC1 (stereo partly drawn) [Example 16, (E)-5-(2-Bromovinyl)-2′-deoxyuridine-5′-[phenyl-(methoxy-α,α-cycloleucinyl)]-phosphate] | 79 | 77 | 16 | – | – | –
CCOC(=O)C1(NP(=O)(OC[C@H]2O[C@@H](n3cc(/C=C/Br)c(=O)[nH]c3=O)CC2O)Oc2ccccc2)CCCC1 (stereo partly drawn) [Example 17, (E)-5-(2-Bromovinyl)-2′-deoxyuridine-5′-[phenyl-(ethoxy-α, α-cycloleucinyl)]-phosphate] | 44 | 81.3 | 41 | – | – | –

Molecule | EC50 [1] [µM] | EC50 [2, 4] [µM] | EC50 ([3]; Homo sapiens) [µM] | EC50 ([2]; read-out: EC50/μM Colon HT115, MTT assay, compounds added to cells over 1 to 3 days) [µM] | EC50 [2, 5] [µM] | EC50 [3, 6] [µM]
O=C(OCc1ccccc1)C1(NP(=O)(OC[C@H]2O[C@@H](n3cc(/C=C/Br)c(=O)[nH]c3=O)CC2O)Oc2ccccc2)CCCC1 (stereo partly drawn) [Example 18, (E)-5-(2-Bromovinyl)-2′-deoxyuridine-5′-[phenyl-(benzoxy-α, α-cycloleucinyl)]-phosphate] | 78 | 9.7 | 33 | – | – | –
COC(=O)C1(NP(=O)(OC[C@H]2O[C@@H](n3cc(/C=C/Br)c(=O)[nH]c3=O)CC2O)Oc2ccc([N+](=O)[O-])cc2)CCCC1 (stereo partly drawn) [Example 19, (E)-5-(2-Bromovinyl)-2′-deoxyuridine-5′-[para-nitrophenyl-(methoxy-α,α-cycloleucinyl)]-phosphate] | 56 | 38.2 | 88 | – | – | –
CCOC(=O)C1(NP(=O)(OC[C@H]2O[C@@H](n3cc(/C=C/Br)c(=O)[nH]c3=O)CC2O)Oc2ccc([N+](=O)[O-])cc2)CCCC1 (stereo partly drawn) [Example 20, (E)-5-(2-Bromovinyl)-2′-deoxyuridine-5′-[para-nitrophenyl-(ethoxy-α,α-cycloleucinyl)]-phosphate] | 13 | 57.3 | 15 | – | – | –
CCOC(=O)[C@H](C)NP(=O)(OC[C@H]1O[C@@H](n2cc(/C=C/Br)c(=O)[nH]c2=O)CC1O)Oc1ccc(C(F)(F)F)cc1 (stereo partly shown) [Example 25] | 33.8 | 4.6 | – | – | – | –
COC(=O)C1(NP(=O)(OC[C@H]2O[C@@H](n3cc(/C=C/Br)c(=O)[nH]c3=O)CC2O)Oc2ccc(C(F)(F)F)cc2)CCCC1 (stereo partly drawn) [Example 28, (E)-5-(2-Bromovinyl)-2′-deoxyuridine-5′-[para-trifluorophenyl-(methoxy-α,α-cycloleucinyl)]-phosphate] | 28.8 | 21.2 | – | – | – | –
O=C(OCc1ccccc1)C1(NP(=O)(OC[C@H]2O[C@@H](n3cc(/C=C/Br)c(=O)[nH]c3=O)CC2O)Oc2ccc(C(F)(F)F)cc2)CCCC1 (stereo partly drawn) [Example 30, (E)-5-(2-Bromovinyl)-2′-deoxyuridine-5′-[para-trifluorophenyl-(benzoxy-α,α-cycloleucinyl)]-phosphate] | 6.9 | 6.4 | – | – | – | –
O=C(OCc1ccccc1)C(Cc1ccccc1)NP(=O)(OCC1OC(n2cc(C=CBr)c(=O)[nH]c2=O)CC1O)Oc1ccccc1 (stereo not shown) [Example 54] | – | – | – | – | 5.1 | –
CCOC(=O)C(C)(C)NP(=O)(OCC1OC(n2cc(C=CBr)c(=O)[nH]c2=O)CC1O)Oc1ccc(C(F)(F)F)cc1 (stereo not shown) [Example 59] | – | – | – | – | 24.7 | –
CCOC(=O)C(NP(=O)(OCC1OC(n2cc(C=CBr)c(=O)[nH]c2=O)CC1O)Oc1ccccc1)C(C)CC (stereo not shown) [Example 73] | – | – | – | – | – | 30.6
O=C(CNP(=O)(OCC1OC(n2cc(C=CBr)c(=O)[nH]c2=O)CC1O)Oc1ccc(Cl)cc1)OCc1ccccc1 (stereo not shown) [Example 77] | – | – | – | – | – | 150
CC(C)[C@H](NP(=O)(OC[C@H]1O[C@@H](n2cc(/C=C/Br)c(=O)[nH]c2=O)C[C@@H]1O)Oc1ccc(C(F)(F)F)cc1)C(=O)OCc1ccccc1 (stereo partly shown) [Example 78] | – | – | – | – | – | 1.6
CC(C)(NP(=O)(OCC1OC(n2cc(C=CBr)c(=O)[nH]c2=O)CC1O)Oc1ccc(F)cc1)C(=O)OCc1ccccc1 (stereo not shown) [Example 84] | – | – | – | – | – | 4.5
CC(C)C(NP(=O)(OCC1OC(n2cc(C=CBr)c(=O)[nH]c2=O)CC1O)Oc1ccccc1)C(=O)OCc1ccccc1 (stereo not shown) [Example 85] | – | – | – | – | – | 31.2
CC(C)C(NP(=O)(OCC1OC(n2cc(C=CBr)c(=O)[nH]c2=O)CC1O)Oc1ccc(Cl)cc1)C(=O)OCc1ccccc1 (stereo not shown) [Example 86] | – | – | – | – | – | 0.9
O=C(OCc1ccccc1)C(NP(=O)(OCC1OC(n2cc(C=CBr)c(=O)[nH]c2=O)CC1O)Oc1ccc(C(F)(F)F)cc1)c1ccccc1 (stereo not shown) [Example 91] | – | – | – | – | – | 0.7
propenate-2′-deoxyuridine [Example 67, reference compound] | – | – | – | – | 93.7 | –
